Results taken from a compilation of properties of binary mixtures (doi:10.1002/aic.14507).

Assay: xn = mol fraction of the nth substance listed
Conditions: 100 kPa

| SMILES | viscosity (303 K, x1 = 0.4462) [mPa·s] | viscosity (303 K, x1 = 0.6298) [mPa·s] | viscosity (313 K, x1 = 0.0098) [mPa·s] | viscosity (313 K, x1 = 0.0219) [mPa·s] | viscosity (313 K, x1 = 0.037) [mPa·s] | viscosity (313 K, x1 = 0.1184) [mPa·s] | viscosity (313 K, x1 = 0.1728) [mPa·s] | viscosity (313 K, x1 = 0.4462) [mPa·s] | viscosity (313 K, x1 = 0.6298) [mPa·s] | viscosity (318 K, x1 = 0.4462) [mPa·s] | viscosity (318 K, x1 = 0.6298) [mPa·s] | viscosity (323 K, x1 = 0.4462) [mPa·s] | viscosity (323 K, x1 = 0.6298) [mPa·s] | viscosity (303 K, x1 = 0.5482) [mPa·s] | viscosity (313 K, x1 = 0.5482) [mPa·s] | viscosity (318 K, x1 = 0.5482) [mPa·s] | viscosity (323 K, x1 = 0.5482) [mPa·s] |
| --- | --- | --- | --- | --- | --- | --- | --- | --- | --- | --- | --- | --- | --- | --- | --- | --- | --- |
| CCCC[n+]1ccn(C)c1.O=[N+]([O-])[O-] + O | 17.21 | 35.74 | 0.819 | 0.971 | 1.24 | 2.753 | 3.908 | 12.64 | 24.64 | 11 | 20.86 | 9.66 | 17.88 | – | – | – | – |
| CCCCCCCCn1cc[n+](C)c1.F[B-](F)(F)F + O | – | – | – | – | – | – | – | – | – | – | – | – | – | 42.67 | 28.9 | 24.3 | 20.63 |
